These results are taken from the supplement of paper PMC10331698.

Common to all, as to assay: level (log10 ratio to DMSO vehicle control); higher = higher biomarker level / cell amount than vehicle control
Common to all, as to details: in DMSO

Compound in test [1]: O=S(=O)(O)C(F)(F)C(F)(F)C(F)(F)C(F)(F)C(F)(F)C(F)(F)C(F)(F)C(F)(F)F [Perfluorooctanesulfonic acid]
As to the method:
(§1)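 BioMAP Diversity Plus panel of 12 human primary cell co-culture systems (3C, 4H, LPS, SAg, BT, BF4T, BE3C, CASM3C, HDF3CGF, KF3CT, MyoF, Mphg). Compounds were added 1 h before stimulation and left for 24 h (MyoF 48 h; BT 72 h for soluble read-outs or 6 d for IgG). Biomarkers were read by ELISA, cytotoxicity by SRB, PBMC viability and proliferation by Alamar Blue. Each well value was divided by the mean of 8 DMSO control wells on the same plate and log10 transformed; duplicate blinded samples were tested at 4 concentrations.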

Compound in the next test: Cn1cnc([N+](=O)[O-])c1Sc1ncnc2[nH]cnc12 [Azathioprine]
As to the method: as §1

Compound in test [2]: O=C(O)CCC(F)(F)C(F)(F)C(F)(F)F [3:3 Fluorotelomer carboxylic acid]
As to the method: as §1

Compound in test [3]: O=C(O)C(F)(F)C(F)(F)C(F)(F)C(F)(F)C(F)(F)C(F)(F)C(F)(F)C(F)(F)Cl [9-Chloro-perfluorononanoic acid]
As to the method: as §1

Compound in test [4]: CC(C)(C)C(=O)CC(=O)C(F)(F)C(F)(F)C(F)(F)F [(Heptafluorobutanoyl)pivaloylmethane]
As to the method: as §1

Compound in test [5]: O=P(O)(O)CCC(F)(F)C(F)(F)C(F)(F)C(F)(F)C(F)(F)C(F)(F)C(F)(F)C(F)(F)F [((Perfluorooctyl)ethyl)phosphonic acid]
Here is the method:
as §1

± gives the standard deviation of the averaged measurements.

Regarding BT:Secreted IgG, the “level (log10)” value in test [1] (6700 nM) is -0.0005 ± 0.0078; in test [1] (20000 nM) it was 0.0025 ± 0.021; in test [1] (60000 nM), -0.0315 ± 0.016; with Azathioprine (1400 nM), -0.866 ± 0.086; with Azathioprine (4200 nM), -0.986 ± 0.019; with Azathioprine (13000 nM), -0.857 ± 0.054. In addition, the “level (log10)” value with Azathioprine (38000 nM) is -0.672 ± 0.0085; in test [2] (6700 nM) it was -0.011 ± 0.024; in test [2] (20000 nM) it was -0.0295 ± 0.012; in test [2] (60000 nM) it was -0.0155 ± 0.005; in test [3] (6700 nM), 0.0065 ± 0.06; in test [3] (20000 nM) it was 0.0175 ± 0.011. In addition, the “level (log10)” value in test [4] (6700 nM) was -0.0115 ± 0.016; in test [4] (20000 nM), -0.009 ± 0.017; in test [4] (60000 nM), -0.023 ± 0.02; in test [5] (6700 nM), 0.001 ± 0.02; in test [5] (20000 nM) it was 0.0005 ± 0.0035; in test [5] (60000 nM), -0.02 ± 0.0057.

For the test system BT:sIL-2, the “level (log10)” value is 0.0065 ± 0.0078 in test [1] (6700 nM); -0.0215 ± 0.044 in test [1] (20000 nM); 0.014 ± 0.027 in test [1] (60000 nM); -0.017 ± 0.11 with Azathioprine (1400 nM); -0.033 ± 0.1 in the test with Azathioprine (4200 nM); -0.164 ± 0.037 with Azathioprine (13000 nM). In addition, the “level (log10)” value with Azathioprine (38000 nM) is -0.629 ± 0.044; in test [2] (6700 nM), -0.042 ± 0.13; in test [2] (20000 nM) it was -0.0335 ± 0.022; in test [2] (60000 nM), 0.0335 ± 0.0021; in test [3] (6700 nM), -0.0175 ± 0.066; in test [3] (20000 nM), -0.0565 ± 0.1. For the same test system, the “level (log10)” value is -0.0485 ± 0.069 in test [4] (6700 nM); -0.022 ± 0.0057 in test [4] (20000 nM); 0.0155 ± 0.067 in test [4] (60000 nM); 0.0065 ± 0.036 in test [5] (6700 nM); 0.067 ± 0.069 in test [5] (20000 nM); -0.107 ± 0.22 in test [5] (60000 nM).

As to BT:sIL-6, the “level (log10)” value is 0.0325 ± 0.06 in test [1] (6700 nM); -0.0415 ± 0.046 in test [1] (20000 nM); -0.0185 ± 0.039 in test [1] (60000 nM); -0.0045 ± 0.042 with Azathioprine (1400 nM); -0.0485 ± 0.074 in the test with Azathioprine (4200 nM); -0.228 ± 0.013 with Azathioprine (13000 nM). Moreover, the “level (log10)” value with Azathioprine (38000 nM) was -0.563 ± 0.0042; in test [2] (6700 nM), 0.0225 ± 0.056; in test [2] (20000 nM), 0.055 ± 0.065; in test [2] (60000 nM), 0.0425 ± 0.076; in test [3] (6700 nM), 0.0155 ± 0.022; in test [3] (20000 nM), 0.0135 ± 0.018. The “level (log10)” value in test [4] (6700 nM) is -0.038 ± 0.038; in test [4] (20000 nM), -0.029 ± 0.0057; in test [4] (60000 nM), -0.013 ± 0.023; in test [5] (6700 nM) it was 0.045 ± 0.0014; in test [5] (20000 nM), 0.0645 ± 0.035; in test [5] (60000 nM) it was -0.019 ± 0.055.

As to BT:sIL-17A, the “level (log10)” value in test [1] (6700 nM) is 0.13 ± 0.18; in test [1] (20000 nM), 0.106 ± 0.098; in test [1] (60000 nM) it was 0.0295 ± 0.025; in the test with Azathioprine (1400 nM), -0.075 ± 0.078; with Azathioprine (4200 nM), -0.179 ± 0.099; in the test with Azathioprine (13000 nM) it was -0.304 ± 0.0057. Besides, the “level (log10)” value with Azathioprine (38000 nM) is -0.804 ± 0.058; in test [2] (6700 nM), 0.021 ± 0.11; in test [2] (20000 nM) it was -0.049 ± 0.13; in test [2] (60000 nM), -0.0765 ± 0.26; in test [3] (6700 nM), 0.015 ± 0.054; in test [3] (20000 nM) it was 0.008 ± 0.047. The “level (log10)” value was -0.0075 ± 0.013 in test [4] (6700 nM); -0.0315 ± 0.053 in test [4] (20000 nM); -0.194 ± 0.18 in test [4] (60000 nM); 0.0985 ± 0.00071 in test [5] (6700 nM); 0.132 ± 0.044 in test [5] (20000 nM); 0.0985 ± 0.083 in test [5] (60000 nM).

Consider BT:sIL-17F, for which the “level (log10)” value in test [1] (6700 nM) is -0.064 ± 0.14; in test [1] (20000 nM), -0.0825 ± 0.059; in test [1] (60000 nM), -0.009 ± 0.018; with Azathioprine (1400 nM), -0.0825 ± 0.079; with Azathioprine (4200 nM), -0.041 ± 0.12; with Azathioprine (13000 nM), -0.092 ± 0.054. For the same test system, the “level (log10)” value was -0.254 ± 0.025 with Azathioprine (38000 nM); -0.003 ± 0.081 in test [2] (6700 nM); 0.035 ± 0.081 in test [2] (20000 nM); 0.059 ± 0.048 in test [2] (60000 nM); -0.0055 ± 0.074 in test [3] (6700 nM); 0.011 ± 0.024 in test [3] (20000 nM). Moreover, the “level (log10)” value in test [4] (6700 nM) is -0.069 ± 0.082; in test [4] (20000 nM), -0.0005 ± 0.036; in test [4] (60000 nM) it was -0.119 ± 0.1; in test [5] (6700 nM), -0.094 ± 0.081; in test [5] (20000 nM), 0.035 ± 0.025; in test [5] (60000 nM), -0.0045 ± 0.088.

In the case of BT:sTNF-alpha, the “level (log10)” value in test [1] (6700 nM) was -0.047 ± 0.095; in test [1] (20000 nM), -0.0585 ± 0.054; in test [1] (60000 nM) it was 0.0105 ± 0.079; with Azathioprine (1400 nM), 0.0225 ± 0.22; with Azathioprine (4200 nM), -0.168 ± 0.11; with Azathioprine (13000 nM), -0.167 ± 0.017. Moreover, the “level (log10)” value with Azathioprine (38000 nM) was -0.782 ± 0.077; in test [2] (6700 nM), 0.152 ± 0.077; in test [2] (20000 nM), 0.0025 ± 0.098; in test [2] (60000 nM) it was 0.158 ± 0.018; in test [3] (6700 nM), 0.0075 ± 0.011; in test [3] (20000 nM) it was 0.0075 ± 0.022. For the same test system, the “level (log10)” value in test [4] (6700 nM) was -0.075 ± 0.064; in test [4] (20000 nM) it was -0.0605 ± 0.016; in test [4] (60000 nM), 0.0315 ± 0.18; in test [5] (6700 nM), -0.019 ± 0.013; in test [5] (20000 nM), -0.0175 ± 0.15; in test [5] (60000 nM), -0.211 ± 0.39.

For the test system LPS:CCL2/MCP-1, the “level (log10)” value came to 0.0025 ± 0.00071 in test [1] (6700 nM); 0.005 ± 0.021 in test [1] (20000 nM); 0.0075 ± 0.005 in test [1] (60000 nM); 0.019 ± 0.055 with Azathioprine (1400 nM); 0.011 ± 0.0042 in the test with Azathioprine (4200 nM); 0.03 ± 0.023 with Azathioprine (13000 nM). In addition, the “level (log10)” value in the test with Azathioprine (38000 nM) is -0.01 ± 0.0014; in test [2] (6700 nM), 0.001 ± 0.023; in test [2] (20000 nM) it was -0.0025 ± 0.015; in test [2] (60000 nM), 0.0135 ± 0.013; in test [3] (6700 nM), 0.005 ± 0.038; in test [3] (20000 nM) it was 0.006 ± 0.0028. The “level (log10)” value in test [4] (6700 nM) was -0.01 ± 0.0014; in test [4] (20000 nM), -0.0055 ± 0.018; in test [4] (60000 nM), 0.001 ± 0.038; in test [5] (6700 nM), -0.0075 ± 0.005; in test [5] (20000 nM) it was -0.0255 ± 0.0092; in test [5] (60000 nM) it was -0.046 ± 0.016.
